{
  "source": "patent US20080167272A1",
  "about": "“Thalidomide metabolites and methods of use” (Auckland Uniservices Limited, priority 2005, published 2008)",
  "key": {"TNF": {"test_system": "TNF", "test": "LPS-induced TNF production by HPBL in culture", "type": "cell-based, human", "conditions": "FIG. 5", "method": "Blood (20 ml) each from seven healthy volunteers was collected into heparinized tubes, and was overlayed on top of 10 ml of Ficoll-Paque Plus (Amersham Biosciences AB, Uppsala, Sweden) in 50 ml Falcon polypropylene conical tubes (Becton Dickson Labware, Franklin Lakes, N.J.). The tubes were centrifuged for 30 min at 300×g and 4° C., and the layer of cells was removed and re-suspended at 1×10^6 cells/ml in A-MEM medium supplemented with foetal bovine serum (Moregate BioTech Ltd, Hamilton, New Zealand) (10% v/v), streptomycin sulphate (100 μg/ml) and penicillin-G (100 units/ml) (Sigma, St Louis, Mo., USA). Cells were added to a 24-well plate (Nunc, Kamstrup, Roskilde, Denmark) with LPS (Escherichia coli serotype 055:B5; Sigma, St. Louis, Mo., USA) plus thalidomide or CG at 0.04, 0.2, 1, 5, 25 & 100 μg/ml; or PG or PiG at 1, 5 & 25 μg/ml in a final volume of 1 ml. Wells containing cells only and cells plus LPS only were included as controls. After 12 hours of incubation, supernatants were removed and assayed immediately for TNF as described in section 4.\nTNF was assayed using a commercially available ELISA kit (OpEIA human or murine TNF kit, PharMingen, San Diego, Calif., USA), according to the manufacturer's instructions. Briefly, samples (100 μl/well) in duplicate together with a serial dilution of TNF (31.25-2000 pg/ml) for the standard curve, were added to flat-bottom 96-well plates pre-coated with immobilised monoclonal anti-TNF antibody and incubated at room temperature for 2 h. The wells were then washed, biotinylated polyclonal antibody to TNF was added, followed by peroxidase-labelled streptavidin, and incubated at room temperature for 1 h. The wells were washed again, and the substrate, tetramethylbenzidine and hydrogen peroxide was added and after 10 min the reaction was stopped with 2 N sulphuric acid. The absorbance at 450 nm was determined using a microtitre plate reader."}, "ECV304 cells [1]": {"test_system": "ECV304 cells", "test": "MTT cytotoxicity assay", "type": "cell-based, human", "conditions": "18 h, 2-250/g/ml, vs untreated or DMSO-treated cultures", "method": "The 3-(4,5-dimethylthiazol-2-yl)-2,5-diphenyl tetrazolium bromide (MTT) assay, which measures mitochondrial metabolic activity, was used to determine cell viability (Mosmann, 1983). Cells (4×10^3/well) were cultured with various concentrations of thalidomide, CG, PG and PiG in a final volume of 100 μl M199 medium (Gibco, Grand Island, N.Y., USA) supplemented with 10% foetal bovine serum ([…] streptomycin sulphate and 100 units/ml penicillin-G (Sigma, St Louis, Calif., USA) in flat-bottomed 96-well plates at 37° C. at 5% CO2 for 18 h. At the end of the incubation period, 10 μl of MTT (Sigma, St. Louis, Mo., 5 mg/ml in PBS) was added to each well, and the cells were further incubated for 2 h. The supernatants were then removed and the formazan crystals in the cells were dissolved by the addition of 100 μl of DMSO per well, and the absorbance at 590 nm was read using a plate reader. Each concentration of drug was tested in triplicate wells, and the mean ±standard error of the mean (SEM) was calculated."}, "ECV304 cells [2]": {"test_system": "ECV304 cells", "test": "Inhibition of tube formation of ECV304 cells in Matrigel", "type": "cell-based, human", "method": "Each well in a 24-well plate was coated with 300 μl of Matrigel (Becton Dickinson, San Jose, Calif., USA) which was allowed to solidified at 37° C. for 1 h. […] After 15-18 h of incubation at 37° C. at 5% CO2, the culture supernatant was aspirated. The cells were fixed and stained using Diff-Quick staining kit (Dade AG, Dudingen, Switzerland) according to the manufacturer's instructions. After removal of the staining solution the stained cells in each well were photographed along with a measuring ruler placed at the bottom edge of the photographing field (Olympus Camedia C-5050 professional digital camera, Olympus Optical, Tokyo, Japan). The total length of the tubes formed in the photographs was measured and divided by the area of the field (mm/mm^2)."}, "Colon 38 tumours [3]": {"test_system": "Colon 38 tumours", "test": "Colon 38 tumour growth in mice, combination with cyclophosphamide", "type": "in vivo", "conditions": "CG 100 mg/kg plus cyclophosphamide 220 mg/kg; FIG. 9", "method": "Mice (C57B1/6 bred at the Animal Resources Unit, University of Auckland, New Zealand) were implanted with Colon 38 tumours, obtained originally from the Mason Research Institute (Auckland, New Zewaland) by transferring 1 mm^3 pieces of the tumour into a subcutaneous opening in the left flank of anaesthetized mice. The mice with tumours were used for growth delay experiments when tumours had reached approximately 3-5 mm in diameter. […] Tumours were measured 2-3 times weekly after treatment and tumour volumes were calculated as 0.52×a^2×b, where a and b are the minor and major axes of the tumour. The arithmetic means and standard errors were calculated for each point, counting cured animals as having zero tumour volume, and expressed as fractions of the pre-treatment volume. Growth delay was determined as the difference in the number of days required for the tumour to reach four times the pre-treatment volume. […]"}, "Colon 38 tumours [4]": {"test_system": "Colon 38 tumours", "test": "Tumour growth delay, Colon 38 tumours in mice, combination with DMXAA", "type": "in vivo", "source_text": "Mice (C57B1/6 bred at the Animal Resources Unit, University of Auckland, New Zealand) were implanted with Colon 38 tumours, obtained originally from the Mason Research Institute (Auckland, New Zewaland) by transferring 1 mm^3 pieces of the tumour into a subcutaneous opening in the left flank of anaesthetized mice. The mice with tumours were used for growth delay experiments when tumours had reached approximately 3-5 mm in diameter. Mice were divided into 10 groups, an untreated control group, a group treated intraperitoneally (i.p.) with DMXAA (5,6-dimethylxanthenone-4-acetic acid, synthesized at the Auckland Cancer Society Research Centre—ACSRC (Auckland, New Zealand) at 25 mg/kg only, and 8 groups treated with DMXAA together with the hydrolytic thalidomide metabolites PG, PiG, CG also synthesized at the ACSRC as previously described (Lu et al, 2003), or thalidomide at 100 mg/kg, or together with CG or thalidomide at 20 mg/kg or 4 mg/kg. DMXAA was dissolved in saline at 2.5 mg/ml and injected i.p. into mice in a volume of 10 μl/g body weight. Thalidomide, PG, PiG and CG were dissolved in dimethylsulphoxide at 40, 8 or 1.6 mg/ml (for dosages of 100, 20, 4 mg/kg respectively) and injected i.p. in a volume of 2.5 μl/g body weight. Tumours were measured 2-3 times weekly after treatment and tumour volumes were calculated as 0.52×a^2×b, where a and b are the minor and major axes of the tumour. The arithmetic means and standard errors were calculated for each point, counting cured animals as having zero tumour volume, and expressed as fractions of the pre-treatment volume. Growth delay was determined as the difference in the number of days required for the tumour to reach four times the pre-treatment volume."}},
  "data": [
    {"smiles": "O=C1CCC(NC(=O)c2ccccc2C(=O)O)C(=O)N1", "note": "(centres unmarked) [CG, 2-{[(2,6-Dioxo-3-piperidinyl)amino]carbonyl}benzoic acid]", "values": [
      {"measurement": "effect on LPS-induced TNF production", "setting": "TNF; HPBL, LPS 100 pg/ml, 12 h, all concentrations tested (PG, PiG: 1, 5, 25 μg/ml)", "result": "significantly decreased LPS-induced TNF levels in a dose-dependent manner"},
      {"measurement": "TNF inhibition in vitro compared with thalidomide", "setting": "TNF; human cell system", "result": "as active as thalidomide"},
      {"measurement": "toxicity (cell viability, MTT)", "setting": "ECV304 cells [1]", "result": "No toxicity was observed"},
      {"measurement": "inhibition of tube formation", "setting": "ECV304 cells [2]; 250 μg/ml, FIGS. 6 & 7", "result": "Near complete inhibition"},
      {"measurement": "inhibition at 2 µg/mL", "setting": "ECV304 cells [2]; Homo sapiens, ECV-304, lowest concentration tested, 2 μg/ml, FIG. 7", "result": "38 to 41", "unit": "%"},
      {"measurement": "angiogenesis inhibition in vitro compared with thalidomide", "setting": "ECV304 cells [2]; human cell system, FIGS. 6 & 7", "result": "as active as thalidomide"},
      {"measurement": "tumour size at day 15 after treatment, combination vs monotherapies", "setting": "Colon 38 tumours [3]", "result": "significantly smaller than those treated with each of the monotherapies"},
      {"measurement": "potentiation of DMXAA-induced anti-tumour effects", "setting": "Colon 38 tumours [4]; 4 mg/kg co-administered with DMXAA 25 mg/kg, FIG. 1C", "result": "neither CG nor thalidomide showed potentiation"},
      {"measurement": "tumour volumes at 21 days after treatment compared with DMXAA alone", "setting": "Colon 38 tumours [4]; 4 mg/kg co-administered with DMXAA 25 mg/kg, FIG. 2", "result": "no significant difference"},
      {"measurement": "potentiation of DMXAA activity against Colon 38 tumours", "setting": "Colon 38 tumours [4]; 20 mg/kg co-administered with DMXAA 25 mg/kg, FIG. 1B", "result": "more effective than thalidomide plus DMXAA or DMXAA alone"},
      {"measurement": "tumour volume at 21 days after treatment compared with DMXAA alone", "setting": "Colon 38 tumours [4]; 20 mg/kg co-administered with DMXAA 25 mg/kg, FIG. 2", "result": "significantly smaller tumour volume than those treated by DMXAA alone"},
      {"measurement": "tumour volumes at 21 days after treatment compared with DMXAA alone", "setting": "Colon 38 tumours [4]; 100 mg/kg co-administered with DMXAA 25 mg/kg, FIG. 2", "result": "significantly smaller tumour volumes than those treated by DMXAA alone"},
      {"measurement": "inhibition of tumour growth compared with DMXAA alone", "setting": "Colon 38 tumours [4]; 100 mg/kg i.p. co-administered with DMXAA 25 mg/kg, FIG. 1A", "result": "greater inhibition of tumour growth than that of DMXAA alone"},
      {"measurement": "tumour growth inhibition compared with thalidomide", "setting": "Colon 38 tumours [4]; doses at or above 20 mg/kg, combined with DMXAA, FIGS. 1 & 2", "result": "greater tumour growth inhibition than thalidomide"}
    ]}
  ]
}
